Source: ChEMBL document CHEMBL6182949 (J Med Chem, 2025)
Activity calls are given as the source filed them. The calls are words filed in the database; no cut-off is given here.

Experiments:
[1] = biological target: Protein cereblon/Interleukin-1 receptor-associated kinase 4 (Homo sapiens, UniProt Q9NWZ3+Q96SW2); test: PROTAC activity at CRBN/IRAK4 in human PBMC cells assessed as induction of IRAK4 degradation incubated for 24 hrs by HiBiT lytic reagent based analysis relative to control; assay type: cell-based
Chain of Protein cereblon/Interleukin-1 receptor-associated kinase 4 (Q96SW2 whole entry, looked up): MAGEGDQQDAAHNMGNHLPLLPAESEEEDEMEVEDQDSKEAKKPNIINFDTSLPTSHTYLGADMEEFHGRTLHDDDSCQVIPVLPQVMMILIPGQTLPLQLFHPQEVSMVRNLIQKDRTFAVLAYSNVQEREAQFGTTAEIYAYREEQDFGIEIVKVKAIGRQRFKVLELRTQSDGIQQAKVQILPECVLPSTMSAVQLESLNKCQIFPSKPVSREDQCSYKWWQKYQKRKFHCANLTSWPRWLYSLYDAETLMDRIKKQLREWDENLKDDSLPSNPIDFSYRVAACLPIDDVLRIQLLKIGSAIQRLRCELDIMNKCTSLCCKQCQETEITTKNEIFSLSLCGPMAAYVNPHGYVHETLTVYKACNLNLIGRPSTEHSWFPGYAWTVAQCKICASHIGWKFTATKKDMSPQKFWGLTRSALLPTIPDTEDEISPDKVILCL
Chain of Protein cereblon/Interleukin-1 receptor-associated kinase 4 (Q9NWZ3 whole entry, looked up): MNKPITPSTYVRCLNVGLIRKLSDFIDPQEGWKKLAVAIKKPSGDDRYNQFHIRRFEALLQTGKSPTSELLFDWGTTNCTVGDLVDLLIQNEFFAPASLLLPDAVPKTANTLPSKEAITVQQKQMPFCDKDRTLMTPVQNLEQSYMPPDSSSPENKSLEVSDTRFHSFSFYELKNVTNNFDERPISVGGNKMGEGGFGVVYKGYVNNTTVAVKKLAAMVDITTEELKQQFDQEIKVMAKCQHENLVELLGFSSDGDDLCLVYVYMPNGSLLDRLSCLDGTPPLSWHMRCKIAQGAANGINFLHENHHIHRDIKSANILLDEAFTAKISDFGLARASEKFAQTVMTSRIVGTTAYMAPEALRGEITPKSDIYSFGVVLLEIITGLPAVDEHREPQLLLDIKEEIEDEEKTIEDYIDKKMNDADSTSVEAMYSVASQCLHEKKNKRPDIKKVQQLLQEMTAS

[2] = Half life in cynomolgus monkey at 1 mg/kg, iv measured up to 24 hrs by LC-MS/MS analysis; assay type: ADME, organism-based, Macaca fascicularis; conditions: in vivo
[3] = Oral bioavailability in Beagle dog at 10 mg/kg measured up to 24 hrs by LC-MS/MS analysis; assay type: ADME, organism-based, Canis lupus familiaris; conditions: in vivo
[4] = AUClast in cynomolgus monkey at 1 mg/kg, iv measured up to 24 hrs by LC-MS/MS analysis; assay type: ADME, organism-based, Macaca fascicularis; conditions: in vivo
[5] = Cmax in Sprague-Dawley rat at 2 mg/kg, iv measured up to 24 hrs by LC-MS/MS analysis; assay type: ADME, organism-based; conditions: in vivo
[6] = biological target: T1, CYP2B6 (Homo sapiens, UniProt P20813); test: Inhibition of CYP2B6 in human liver microsome using bupropion as substrate at 10 uM preincubated for 5 mins followed by NADPH addition and measured after 10 mins by LC-MS/MS analysis relative to control; assay type: ADME; conditions: human liver microsomes, probe bupropion, time 15 min
T1 sequence (P20813 whole entry): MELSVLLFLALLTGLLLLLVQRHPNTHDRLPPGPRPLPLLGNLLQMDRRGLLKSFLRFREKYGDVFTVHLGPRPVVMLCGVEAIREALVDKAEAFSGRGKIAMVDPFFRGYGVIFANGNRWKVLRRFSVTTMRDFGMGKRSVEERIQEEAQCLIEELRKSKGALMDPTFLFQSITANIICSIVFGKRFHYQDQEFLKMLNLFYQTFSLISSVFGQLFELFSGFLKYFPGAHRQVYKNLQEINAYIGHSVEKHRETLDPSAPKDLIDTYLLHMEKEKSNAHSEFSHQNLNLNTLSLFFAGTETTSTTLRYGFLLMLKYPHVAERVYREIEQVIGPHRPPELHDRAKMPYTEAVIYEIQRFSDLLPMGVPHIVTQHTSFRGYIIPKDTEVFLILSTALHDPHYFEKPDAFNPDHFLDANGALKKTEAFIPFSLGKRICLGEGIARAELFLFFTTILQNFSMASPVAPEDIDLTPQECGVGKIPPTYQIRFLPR

[7] = tested on: Mus musculus; test: Anti-psoriasis effect in IMQ-induced C57BL/6 mouse assessed as reduction in ear thickness at 30 mg/kg administered topically twice daily for 6 days and measured after 24 hrs; assay type: functional, organism-based; conditions: time 7.0 day
[8] = AUClast in male C57BL/6 mouse at 10 mg/kg, po measured up to 24 hrs by LC-MS/MS analysis; assay type: ADME, organism-based; conditions: in vivo
[9] = Inhibition of LPS-stimulated IL-6 release in human PBMC cells; assay type: functional, cell-based

Question: Which results are given for `Cn1c(=O)n(C2CCC(=O)NC2=O)c2cccc(C#CCO[C@H]3CC[C@H](CN4CCC5(CC4)Cc4cc(NC(=O)c6coc7cccnc67)c(N6CCC(CO)CC6)cc4O5)CC3)c21` (some centres undefined)?
Answer: Emax [1]: 94%; half-life [2]: 8.67 h; bioavailability [3]: 39%; AUC(0-t) at 24 h [4]: 1820 ng·h/mL; Cmax [5]: 14.2 ng/mL; inhibition at 10 min, 10 µM [6]: 0.13%; Activity [7]: Active; AUC(0-t) at 24 h [8]: 23400 ng·h/mL; IC50 [9]: 16.4 nM
